Our source for the pest or weed control, chromatographic logP and efficacy values is patent publication US9314026B2, “Heterocyclylpyri(mi)dinylpyrazole” (Bayer Intellectual Property GmbH, priority 2011, dated 2016).

The subject of one data set is Alternaria solani. As to the kind of experiment: Alternaria test (tomato)/preventive. Type of data set: in vivo. The conditions noted are these: 168 h, 500 ppm of active ingredient, preventive, evaluated 7 days after inoculation, read-out: efficacy. As to the method:
Alternaria Test (Tomato)/Preventive Solvent: 49 parts by weight of N,N-Dimethylformamide Emulsifier: 1 part by weight of Alkylarylpolyglycolether To produce a suitable preparation of active compound, 1 part by weight of active compound is mixed with the stated amounts of solvent and emulsifier, and the concentrate is diluted with water to the desired concentration. To test for preventive activity, young plants are sprayed with the preparation of active compound at the stated rate of application. One day after this treatment, the plants are inoculated with an aqueous spore suspension of Alternaria solani. […] Then the plants are placed in an incubation cabinet at approximately 20° C. and a relative atmospheric humidity of 96%.

A short description of data set [1]: determination of the log P values by HPLC on a reverse phase column (C18), EEC-Directive 79/831 Annex V.A8. The data set is classed as physicochemical. The procedure: Method A Note on the determination of the log P values and mass detection: The stated log P values were determined in accordance with EEC-Directive 79/831 Annex V.A8 by HPLC (High Performance Liquid Chromatography) on a reverse phase column (C18). […] The mass detection was effected with an […] system. Method B Note on the determination of the log P values and mass detection: The stated log P values were determined in accordance with EEC-Directive 79/831 Annex V.A8 by HPLC (High Performance Liquid Chromatography) on a reverse phase column (C18). […] The mass detection was effected with the Micronass ZQ2000 mass detector from Waters. Method C Note on the determination of the log P values and mass detection: The stated log P values were determined in accordance with EEC-Directive 79/831 Annex V.A8 by UPLC (Ultra Performance Liquid Chromatography) on a reverse phase column (C18). […] The mass detection was effected with the LCT Premier or SQD mass detector from Waters.

The subject of the next data set is Pyricularia oryzae. The experiment in a line: whole plant or invertebrate. Type of data set: in vivo. The conditions noted are these: 168 h, read-out: efficacy.
In the next data set the test system is Botrytis cinerea. The experiment in a line: Botrytis test (beans)/preventive. The data set is classed as in vivo. The conditions noted are these: 48 h, 100 ppm of active ingredient, preventive, size of lesions evaluated 2 days after inoculation, read-out: efficacy. As to the method: Botrytis Test (Beans)/Preventive Solvent: 24.5 parts by weight of acetone • 24.5 parts by weight of dimethylacetamide Emulsifier: 1 part by weight of alkylaryl polyglycol ether To produce a suitable preparation of active compound, 1 part by weight of active compound is mixed with the stated amounts of solvent and emulsifier, and the concentrate is diluted with water to the desired concentration. To test for preventive activity, young plants are sprayed with the preparation of active compound. After the spray coating has dried on, 2 small pieces of agar covered with growth of Botrytis cinerea are placed on each leaf.

The test system of the next data set is Pyrenophora teres. As to the kind of experiment: Pyrenophora test (barley)/preventive. The data set is classed as in vivo. To be noted: 500 ppm of active ingredient, preventive, evaluated 7-9 days after inoculation, read-out: efficacy. The procedure: (§1) Pyrenophora Test (Barley)/Preventive Solvent: 49 parts by weight of N,N-Dimethylformamide Emulsifier: 1 part by weight of Alkylarylpolyglycolether To produce a suitable preparation of active compound, 1 part by weight of active compound is mixed with the stated amounts of solvent and emulsifier, and the concentrate is diluted with water to the desired concentration. To test for preventive activity, young plants are sprayed with the preparation of active compound at the stated rate of application. One day after this treatment, the plants are inoculated with an aqueous spore suspension of Pyrenophora teres.

The test system of a further data set is Leptosphaeria nodorum. The experiment in a line: Leptosphaeria test (wheat)/preventive. Type of data set: in vivo. To be noted: Parastagonospora nodorum, 500 ppm of active ingredient, preventive, evaluated 7-9 days after inoculation, read-out: efficacy. The procedure: as §1, with “Leptosphaeria Test (Wheat)/Preventive” for “Pyrenophora Test (Barley)/Preventive”, “Leptosphaeria Test (Wheat)/Preventive Solvent: 49” for “Pyrenophora Test (Barley)/Preventive Solvent: 49”, “sprayed with a preparation of” for “sprayed with the preparation of”, “suspension of Leptosphaeria nodorum.” for “suspension of Pyrenophora teres.”

For another data set, the system named is Venturia inaequalis. As to the kind of experiment: Venturia test (apples)/preventive. Type of data set: in vivo. The conditions noted are these: 100 ppm of active ingredient, preventive, evaluated 10 days after inoculation. The procedure: Venturia Test (Apples)/Preventive Solvent: 24.5 parts by weight of acetone • 24.5 parts by weight of dimethylacetamide Emulsifier: 1 part by weight of alkylaryl polyglycol ether To produce a suitable preparation of active compound, 1 part by weight of active compound is mixed with the stated amounts of solvent and emulsifier, and the concentrate is diluted with water to the desired concentration. To test for preventive activity, young plants are sprayed with the preparation of active compound at the stated rate of application.

Another data set has as its system Phytophthora infestans. The experiment in a line: whole plant or invertebrate. Type of data set: in vivo. To be noted: 72 h, read-out: efficacy.
In another data set the test system is Puccinia recondita. As to the kind of experiment: Puccinia test (wheat)/preventive. The data set is classed as in vivo. To be noted: 500 ppm of active ingredient, preventive, evaluated 7-9 days after inoculation, read-out: efficacy. As to the method: as §1, with “Puccinia” for “Pyrenophora”, “(Wheat)/Preventive” for “(Barley)/Preventive”, “Puccinia recondita.” for “Pyrenophora teres.”

A further data set concerns Fusarium graminearum. The experiment in a line: whole plant or invertebrate. The conditions noted are these: in Hordeum vulgare, 120 h, read-out: efficacy. The data set is classed as in vivo.
In data set [2] the test system is Fusarium nivale (var. majus). As to the kind of experiment: Fusarium nivale (var. majus)-test (wheat)/preventive. Type of data set: in vivo. To be noted: Microdochium nivale, 120 h, 500 ppm of active ingredient, preventive, evaluated 5 days after inoculation, read-out: efficacy. As to the method: (§2) Fusarium nivale (Var. Majus)-Test (Wheat)/Preventive Solvent: 49 parts by weight of n,n-dimethylacetamid Emulsifier: 1 part by weight of alkylaryl polyglycol ether To produce a suitable preparation of active compound, 1 part by weight of active compound or active compound combination is mixed with the stated amounts of solvent and emulsifier, and the concentrate is diluted with water to the desired concentration. To test for preventive activity, young plants are sprayed with the preparation of active compound or active compound combination at the stated rate of application. After the spray coating has been dried, the plants are slightly injured by using a sandblast and afterwards they are sprayed with a conidia suspension of Fusarium nivale (var. majus).

For a further data set, the system named is Sphaerotheca fuliginea. The experiment in a line: Sphaerotheca test (cucumber)/preventive. The data set is classed as in vivo. The conditions noted are these: Podosphaera fuliginea, 168 h, 500 ppm of active ingredient, preventive, evaluated 7 days after inoculation, 0% = untreated control, 100% = no disease, read-out: efficacy. The procedure:
as §1, with “Sphaerotheca” for “Pyrenophora”, “(Cucumber)/Preventive” for “(Barley)/Preventive”, “Sphaerotheca fuliginea.” for “Pyrenophora teres.”

The next data set concerns Septoria tritici. As to the kind of experiment: Septoria tritici-test (wheat)/preventive. The data set is classed as in vivo. To be noted: 500 ppm of active ingredient, preventive, evaluated 21 days after inoculation. As to the method: as §2, with “Septoria tritici-Test” for “Fusarium nivale (Var. Majus)-Test”, “are” for “are slightly injured by using a sandblast and afterwards they are”, “spore” for “conidia”, “Septoria tritici.” for “Fusarium nivale (var. majus).”

The structures appear in SMILES notation.

Regarding `CC(=O)N(C(C)=O)c1cc(-c2c(-c3ccsc3)nn3c2CCCC3)ccn1` [Example 4, N-acetyl-N-{4-[2-(3-thienyl)-4,5,6,7-tetrahydropyrazolo[1,5-a]pyridin-3-yl]pyridin-2-yl}acetamide], the pest or weed control at 500 ppm in the data set on Alternaria solani worked out at 90%; with Pyricularia oryzae, 95%; in the data set with Pyrenophora teres, 95%; with Leptosphaeria nodorum, 95%. The same compound yielded a chromatographic logP in data set [1] of 2.18. Also, the pest or weed control at 100 ppm with Botrytis cinerea and with Phytophthora infestans was 95% throughout. Further, the efficacy in the data set on Venturia inaequalis stood at 95%.

`CC(=O)N(C(C)=O)c1cc(-c2c(-c3cccs3)nn3c2CCCC3)ccn1` [Example 8, N-acetyl-N-{4-[2-(2-thienyl)-4,5,6,7-tetrahydropyrazolo[1,5-a]pyridin-3-yl]pyridin-2-yl}acetamide]: the pest or weed control at 500 ppm turned out to be 89% with Puccinia recondita; 89% with Alternaria solani; 88% with Fusarium graminearum; 92% in data set [2]; 95% with Sphaerotheca fuliginea; 95% in the data set with Pyricularia oryzae. Besides, the pest or weed control at 500 ppm in the data set on Pyrenophora teres worked out at 100%; with Leptosphaeria nodorum, 89%. The compound also returned a chromatographic logP in [1] of 2.18. For the same compound, the pest or weed control at 100 ppm with Phytophthora infestans was found to be 83%.

Consider `CC(=O)N(C(C)=O)c1cc(-c2c(-c3ccccc3)nn3c2CCCC3)ccn1` [Example 2, N-acetyl-N-[4-(2-phenyl-4,5,6,7-tetrahydropyrazolo[1,5-a]pyridin-3-yl)pyridin-2-yl]acetamide], for which the pest or weed control at 500 ppm amounted to 100% in the data set with Puccinia recondita; 100% in the data set on Alternaria solani; 100% in the data set on Fusarium graminearum; 100% in data set [2]; 96% with Sphaerotheca fuliginea; 70% with Pyricularia oryzae. The pest or weed control at 500 ppm came to 100% in the data set on Pyrenophora teres and 95% in the data set with Leptosphaeria nodorum. The same compound yielded a chromatographic logP in data set [1] of 2.22. Besides, the efficacy was 100% with Septoria tritici and 71% in the data set with Venturia inaequalis. In addition, the values for the pest or weed control at 100 ppm in the data set on Botrytis cinerea and in the data set on Phytophthora infestans were 87% and 95%, respectively.

Regarding `CCC(=O)N(C(=O)C(C)C)c1cc(-c2c(-c3ccc(F)cc3)nn3c2CCOC3C)ccn1` (stereo not drawn) [Example 3, N-{4-[2-(4-fluorophenyl)-7-methyl-4,5-dihydropyrazolo[1,5-c][1,3]oxazin-3-yl]pyridin-2-yl}-2-methyl-N-propionylpropanamide], the pest or weed control at 500 ppm was 95% in the data set with Puccinia recondita; 90% in the data set with Alternaria solani; 89% in the data set on Fusarium graminearum; 100% in [2]; 95% with Sphaerotheca fuliginea; 90% in the data set with Pyricularia oryzae. In addition, the pest or weed control at 500 ppm was 100% in the data set on Pyrenophora teres and 90% in the data set on Leptosphaeria nodorum. Moreover, in [1], the chromatographic logP was 3.83. Also, the efficacy in the data set on Septoria tritici was found to be 100%; with Venturia inaequalis it was 95%. Moreover, the pest or weed control at 100 ppm in the data set with Botrytis cinerea turned out to be 88%; with Phytophthora infestans, 91%.

With `O=C(C1CC1)N(C(=O)C1CC1)c1cc(-c2c(-c3ccc(F)cc3)nn3c2CCC3)ccn1` [Example 12, N-(cyclopropylcarbonyl)-N-{4-[2-(4-fluorophenyl)-5,6-dihydro-4H-pyrrolo[1,2-b]pyrazol-3-yl]pyridin-2-yl}cyclopropanecarboxamide], the pest or weed control at 500 ppm with Puccinia recondita was determined as 95%; in the data set with Alternaria solani, 80%; in the data set with Sphaerotheca fuliginea, 100%; in the data set with Pyricularia oryzae, 80%; in the data set on Pyrenophora teres it was 95%; with Leptosphaeria nodorum, 95%. Besides, the chromatographic logP in data set [1] came to 2.91.

As to `CC(=O)N(C(C)=O)c1cc(-c2c(-c3ccc(F)cc3)nn3c2CCOC3C)ccn1` (stereo not drawn) [Example 10, N-acetyl-N-{4-[2-(4-fluorophenyl)-7-methyl-4,5-dihydropyrazolo[1,5-c][1,3]oxazin-3-yl]pyridin-2-yl}acetamide], the pest or weed control at 500 ppm is 95% in the data set with Puccinia recondita; 90% in the data set on Alternaria solani; 94% in the data set on Fusarium graminearum; 100% in [2]; 95% with Sphaerotheca fuliginea; 95% with Pyrenophora teres. Besides, in the data set with Leptosphaeria nodorum, the pest or weed control at 500 ppm stood at 90%. The chromatographic logP in data set [1] worked out at 2.56. Further, the efficacy with Septoria tritici turned out to be 80%.
